Assay results published in PubChem BioAssay (NCI).
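Each compound was tested at five concentrations against cells in 96-well plates for 48 hours. GI50 marks 50% less growth. Definition used: TGI = concentration required for complete inhibition of growth.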

What was measured:
Test in all cases: NCI-60 cell line screen, 48 h
786-0 renal = system: 786-0 renal
A498 renal = system: A498 renal
A549 NSCLC = system: A549 NSCLC
ACHN renal = system: ACHN renal
BT-549 breast = system: BT-549 breast
CAKI-1 renal = system: CAKI-1 renal
CCRF-CEM leukemia = system: CCRF-CEM leukemia
COLO 205 colon = system: COLO 205 colon
DU-145 prostate = system: DU-145 prostate
HCC-2998 colon = system: HCC-2998 colon
HCT-15 colon = system: HCT-15 colon
HL-60(TB) leukemia = system: HL-60(TB) leukemia
HOP-62 NSCLC = system: HOP-62 NSCLC
HOP-92 NSCLC = system: HOP-92 NSCLC
HS 578T breast = system: HS 578T breast
HT29 colon = system: HT29 colon
IGROV1 ovarian = system: IGROV1 ovarian
K-562 leukemia = system: K-562 leukemia
KM12 colon = system: KM12 colon
M14 melanoma = system: M14 melanoma
MALME-3M melanoma = system: MALME-3M melanoma
MDA-MB-231 breast = system: MDA-MB-231 breast
MDA-MB-435 = system: MDA-MB-435
MOLT-4 leukemia = system: MOLT-4 leukemia
NCI-H226 lung = system: NCI-H226 lung
NCI-H23 lung = system: NCI-H23 lung
NCI-H460 lung = system: NCI-H460 lung
NCI-H522 lung = system: NCI-H522 lung
NCI/ADR-RES ovarian = system: NCI/ADR-RES ovarian
OVCAR-3 ovarian = system: OVCAR-3 ovarian
OVCAR-4 ovarian = system: OVCAR-4 ovarian
OVCAR-5 ovarian = system: OVCAR-5 ovarian
OVCAR-8 ovarian = system: OVCAR-8 ovarian
PC-3 prostate = system: PC-3 prostate
RPMI-8226 leukemia = system: RPMI-8226 leukemia
RXF 393 renal = system: RXF 393 renal
SF-268 CNS = system: SF-268 CNS
SF-295 CNS = system: SF-295 CNS
SF-539 CNS = system: SF-539 CNS
SK-MEL-2 melanoma = system: SK-MEL-2 melanoma
SK-MEL-28 melanoma = system: SK-MEL-28 melanoma
SK-MEL-5 melanoma = system: SK-MEL-5 melanoma
SK-OV-3 ovarian = system: SK-OV-3 ovarian
SN12C renal = system: SN12C renal
SNB-19 CNS = system: SNB-19 CNS
SNB-75 CNS = system: SNB-75 CNS
SR leukemia = system: SR leukemia
T-47D breast = system: T-47D breast
TK-10 renal = system: TK-10 renal
U251 CNS = system: U251 CNS
UACC-257 melanoma = system: UACC-257 melanoma
UACC-62 melanoma = system: UACC-62 melanoma
UO-31 renal = system: UO-31 renal
EKVX NSCLC = system: EKVX NSCLC
HCT-116 colon = system: HCT-116 colon
MCF7 breast = system: MCF7 breast
SW-620 colon = system: SW-620 colon

O=C1NC(=NCCc2cccc(Cl)c2)S/C1=C\c1ccc2ncccc2c1
GI50 (786-0 renal): > 25 µM | TGI (786-0 renal): > 25 µM | GI50 (A498 renal): > 25 µM | TGI (A498 renal): > 25 µM | GI50 (A549 NSCLC): > 25 µM | TGI (A549 NSCLC): > 25 µM | GI50 (ACHN renal): > 25 µM | TGI (ACHN renal): > 25 µM | GI50 (BT-549 breast): > 25 µM | TGI (BT-549 breast): > 25 µM | GI50 (CAKI-1 renal): > 25 µM | TGI (CAKI-1 renal): > 25 µM | GI50 (CCRF-CEM leukemia): > 25 µM | TGI (CCRF-CEM leukemia): > 25 µM | GI50 (COLO 205 colon): > 25 µM | TGI (COLO 205 colon): > 25 µM | GI50 (DU-145 prostate): > 25 µM | TGI (DU-145 prostate): > 25 µM | GI50 (HCC-2998 colon): > 25 µM | TGI (HCC-2998 colon): > 25 µM | GI50 (HCT-15 colon): 1.08 µM | TGI (HCT-15 colon): > 25 µM | GI50 (HL-60(TB) leukemia): > 25 µM | TGI (HL-60(TB) leukemia): > 25 µM | GI50 (HOP-62 NSCLC): > 25 µM | TGI (HOP-62 NSCLC): > 25 µM | GI50 (HOP-92 NSCLC): > 25 µM | TGI (HOP-92 NSCLC): > 25 µM | GI50 (HS 578T breast): > 25 µM | TGI (HS 578T breast): > 25 µM | GI50 (HT29 colon): > 25 µM | TGI (HT29 colon): > 25 µM | GI50 (IGROV1 ovarian): > 25 µM | TGI (IGROV1 ovarian): > 25 µM | GI50 (K-562 leukemia): 1.17 µM | TGI (K-562 leukemia): > 25 µM | GI50 (KM12 colon): 1.32 µM | TGI (KM12 colon): > 25 µM | GI50 (M14 melanoma): > 25 µM | TGI (M14 melanoma): > 25 µM | GI50 (MALME-3M melanoma): > 25 µM | TGI (MALME-3M melanoma): > 25 µM | GI50 (MDA-MB-231 breast): > 25 µM | TGI (MDA-MB-231 breast): > 25 µM | GI50 (MDA-MB-435): 0.635 µM | TGI (MDA-MB-435): > 25 µM | GI50 (MOLT-4 leukemia): > 25 µM | TGI (MOLT-4 leukemia): > 25 µM | GI50 (NCI-H226 lung): > 25 µM | TGI (NCI-H226 lung): > 25 µM | GI50 (NCI-H23 lung): > 25 µM | TGI (NCI-H23 lung): > 25 µM | GI50 (NCI-H460 lung): > 25 µM | TGI (NCI-H460 lung): > 25 µM | GI50 (NCI-H522 lung): > 25 µM | TGI (NCI-H522 lung): > 25 µM | GI50 (NCI/ADR-RES ovarian): > 25 µM | TGI (NCI/ADR-RES ovarian): > 25 µM | GI50 (OVCAR-3 ovarian): > 25 µM | TGI (OVCAR-3 ovarian): > 25 µM | GI50 (OVCAR-4 ovarian): > 25 µM | TGI (OVCAR-4 ovarian): > 25 µM | GI50 (OVCAR-5 ovarian): > 25 µM | TGI (OVCAR-5 ovarian): > 25 µM | GI50 (OVCAR-8 ovarian): > 25 µM | TGI (OVCAR-8 ovarian): > 25 µM | GI50 (PC-3 prostate): > 25 µM | TGI (PC-3 prostate): > 25 µM | GI50 (RPMI-8226 leukemia): > 25 µM | TGI (RPMI-8226 leukemia): > 25 µM | GI50 (RXF 393 renal): > 25 µM | TGI (RXF 393 renal): > 25 µM | GI50 (SF-268 CNS): > 25 µM | TGI (SF-268 CNS): > 25 µM | GI50 (SF-295 CNS): > 25 µM | TGI (SF-295 CNS): > 25 µM | GI50 (SF-539 CNS): > 25 µM | TGI (SF-539 CNS): > 25 µM | GI50 (SK-MEL-2 melanoma): > 25 µM | TGI (SK-MEL-2 melanoma): > 25 µM | GI50 (SK-MEL-28 melanoma): > 25 µM | TGI (SK-MEL-28 melanoma): > 25 µM | GI50 (SK-MEL-5 melanoma): > 25 µM | TGI (SK-MEL-5 melanoma): > 25 µM | GI50 (SK-OV-3 ovarian): > 25 µM | TGI (SK-OV-3 ovarian): > 25 µM | GI50 (SN12C renal): > 25 µM | TGI (SN12C renal): > 25 µM | GI50 (SNB-19 CNS): > 25 µM | TGI (SNB-19 CNS): > 25 µM | GI50 (SNB-75 CNS): > 25 µM | TGI (SNB-75 CNS): > 25 µM | GI50 (SR leukemia): 0.403 µM | TGI (SR leukemia): > 25 µM | GI50 (T-47D breast): > 25 µM | TGI (T-47D breast): > 25 µM | GI50 (TK-10 renal): > 25 µM | TGI (TK-10 renal): > 25 µM | GI50 (U251 CNS): > 25 µM | TGI (U251 CNS): > 25 µM | GI50 (UACC-257 melanoma): > 25 µM | TGI (UACC-257 melanoma): > 25 µM | GI50 (UACC-62 melanoma): > 25 µM | TGI (UACC-62 melanoma): > 25 µM | GI50 (UO-31 renal): > 25 µM | TGI (UO-31 renal): > 25 µM

Cc1ccccc1N/C(=C(/C(Cl)=C(Cl)Cl)[N+](=O)[O-])n1nnc2ccccc21
TGI (786-0 renal): > 100 µM | TGI (A498 renal): 40.4 µM | TGI (A549 NSCLC): > 100 µM | TGI (ACHN renal): > 100 µM | TGI (BT-549 breast): 27.5 µM | TGI (CAKI-1 renal): 34.9 µM | TGI (CCRF-CEM leukemia): > 100 µM | TGI (COLO 205 colon): 29.1 µM | TGI (DU-145 prostate): 62.2 µM | TGI (EKVX NSCLC): 40.9 µM | TGI (HCC-2998 colon): 35.8 µM | TGI (HCT-116 colon): > 100 µM | TGI (HCT-15 colon): 31.6 µM | TGI (HOP-62 NSCLC): 30.6 µM | TGI (HS 578T breast): 27.1 µM | TGI (HT29 colon): 35.5 µM | TGI (K-562 leukemia): > 100 µM | TGI (KM12 colon): 29.4 µM | TGI (M14 melanoma): 64.9 µM | TGI (MALME-3M melanoma): 27.9 µM | TGI (MCF7 breast): 86.5 µM | TGI (MDA-MB-231 breast): 58.1 µM | TGI (MDA-MB-435): 30.1 µM | TGI (MOLT-4 leukemia): > 100 µM | TGI (NCI-H226 lung): 35.3 µM | TGI (NCI-H23 lung): 33.3 µM | TGI (NCI-H460 lung): 28.5 µM | TGI (NCI/ADR-RES ovarian): 49.5 µM | TGI (OVCAR-3 ovarian): 30.8 µM | TGI (OVCAR-4 ovarian): 34 µM | TGI (OVCAR-5 ovarian): 33.6 µM | TGI (PC-3 prostate): 80.7 µM | TGI (RPMI-8226 leukemia): > 100 µM | TGI (SF-268 CNS): 30.8 µM | TGI (SF-295 CNS): 28.8 µM | TGI (SF-539 CNS): 39.1 µM | TGI (SK-MEL-2 melanoma): 33 µM | TGI (SK-MEL-28 melanoma): 30.9 µM | TGI (SK-OV-3 ovarian): 40.7 µM | TGI (SN12C renal): 31.1 µM | TGI (SNB-19 CNS): 46.8 µM | TGI (SNB-75 CNS): 34.2 µM | TGI (SW-620 colon): 29.4 µM | TGI (T-47D breast): 58 µM | TGI (U251 CNS): 29.9 µM | TGI (UACC-257 melanoma): > 100 µM | TGI (UACC-62 melanoma): 71.9 µM | TGI (UO-31 renal): 31.8 µM
